Reference: publication PMC11863921 (BMC Biology, 2025)
“Also recorded” adds a separate entry of the source.

Target: T1, AsolRXFP/LGR3 (Acanthaster planci, UniProt A0A8B7XXQ8)
T1 sequence (A0A8B7XXQ8 1-847): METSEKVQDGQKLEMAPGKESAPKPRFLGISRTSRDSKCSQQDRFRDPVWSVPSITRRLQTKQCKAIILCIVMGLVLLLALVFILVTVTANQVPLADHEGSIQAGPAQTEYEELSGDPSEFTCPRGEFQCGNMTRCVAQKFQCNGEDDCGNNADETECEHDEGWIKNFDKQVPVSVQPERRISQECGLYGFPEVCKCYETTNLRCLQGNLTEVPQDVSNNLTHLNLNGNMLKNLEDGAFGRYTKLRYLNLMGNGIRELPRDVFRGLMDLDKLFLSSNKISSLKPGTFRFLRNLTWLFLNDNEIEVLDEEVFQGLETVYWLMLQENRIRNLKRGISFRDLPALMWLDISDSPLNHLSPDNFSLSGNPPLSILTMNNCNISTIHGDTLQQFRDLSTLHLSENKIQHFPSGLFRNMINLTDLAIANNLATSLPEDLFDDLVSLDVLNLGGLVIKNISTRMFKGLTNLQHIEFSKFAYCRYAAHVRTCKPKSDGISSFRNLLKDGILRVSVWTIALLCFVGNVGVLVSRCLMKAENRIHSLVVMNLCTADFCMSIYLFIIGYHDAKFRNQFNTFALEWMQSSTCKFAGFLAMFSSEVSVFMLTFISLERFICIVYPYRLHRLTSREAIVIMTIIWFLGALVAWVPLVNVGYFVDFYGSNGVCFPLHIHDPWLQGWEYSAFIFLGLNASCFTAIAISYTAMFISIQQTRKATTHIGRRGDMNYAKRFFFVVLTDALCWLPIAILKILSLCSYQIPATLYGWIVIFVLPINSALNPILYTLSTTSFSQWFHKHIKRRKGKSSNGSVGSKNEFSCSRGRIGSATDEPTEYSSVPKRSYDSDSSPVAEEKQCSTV
Test: CRE reporter gene assay in CHO cells stably expressing AsolRXFP/LGR3
Format: cell-based, A. cf. solaris
Details: for cAMP activity / CRE reporter gene activation: increasing concentrations
Protocol: Human embryonic kidney (HEK) 293T cells were grown in complete Dulbecco’s modified Eagle medium (DMEM; Gibco) and Chinese hamster ovary (CHO) cells in complete DMEM/F12 (Gibco). Media was supplemented with 10% fetal bovine serum, 1% penicillin/streptomycin, and 1% L‐glutamine (complete media; All from Gibco). HEK-293T cells were transfected with LipofectAMINE 2000 (Invitrogen) and CHO cells with CHO TransIT and CHO-Mojo (Mirus), both according to the manufacturer’s instructions.
CHO and HEK293T cells stably expressing AsolRXFP/LGR3 were generated by lentiviral transduction. HEK293T cells were plated in 10 cm dishes for transfection with pLenti X1-Ef1α-COT-RXFP-like 2-IRES-GFP along with the lentiviral packaging and envelope plasmids pMDL, pRSV‐Rev, and pCMV‐VSV‐G, using Lipofectamine 2000. The following day, media containing lentivirus was harvested and filtered through a 0.45 μm syringe filter. Fresh CHO and HEK293T cells in 10 cm plates were transduced by replacing the cell culture media with the filtered media containing lentivirus, mixed with 4 μg/mL hexadimethrine bromide (Polybrene) to increase transduction efficiency. Three rounds of transduction were performed over 32 h, before cells were allowed to recover for three days in complete media. Transduced cells were sorted from non-transduced cells using the GFP reporter by fluorescence-activated cell sorting (FACS), using a Becton Dickinson FACSAria III as previously described. Single, live cells with low GFP expression were selected to represent low AsolRXFP/LGR3 expression and were subsequently grown to confluency in a T175 flask and cryopreserved.
The ability of the A. cf. solaris receptors to respond to A. cf. solaris RGP1 and RGP2 peptides was tested using a pCRE β-galactosidase reporter gene assay in CHO cells stably expressing AsolRXFP/LGR3 or HEK-293T cells transfected with AsolRXFP/LGR4 (long) or AsolRXFP/LGR4 (short), as described in detail previously. Importantly, the pCRE β-galactosidase reporter gene assay measures both Gs and Gq activation downstream of GPCR activation by monitoring CREB-mediated gene transcription. Cells were seeded in 96 well plates and were left to grow overnight at 37 °C in an incubator with 5% CO2. The next day the cells were transfected with different amounts of the pCRE reporter gene DNA [57] and/or pcDNA3.1 receptor constructs, as described above, and were left to grow overnight in an incubator. Triplicate wells in each plate were transfected with the equivalent amount of pCRE reporter gene DNA and pcDNA3.1 without a receptor-encoding insert as the background CRE activity control. The next day cells were exposed in triplicate wells to increasing concentrations of peptides diluted in media for 6 h at 37 °C in an incubator. Triplicate parallel wells contained 5 µM forskolin and blank media as positive and negative controls, respectively. At the end of the incubation period, the media was aspirated, and the plate was stored at − 80 °C until development. Plates were thawed for the development of β-galactosidase activity, as described previously, with absorbance being read at 570 nm on an Epoch 2 microplate reader. The data were analyzed as the percentage of the response induced by 5 µM forskolin and pooled followed by fitting to a three-parameter sigmoidal dose–response curve using GraphPad Prism 10. Experiments were performed at least three times with triplicate determinations in each assay (Additional file 17: Dataset S10).

Substance | cAMP activity / CRE reporter gene activation (CHO-AsolRXFP/LGR3 cells) | relative potency/efficacy as ligand for AsolRXFP/LGR3 (compared with RGP1) | efficacy (Emax) (CHO-AsolRXFP/LGR3 cells, 5 µM forskolin = reference, n = 6)
Acanthaster cf. solaris Relaxin-like gonad-stimulating peptide 2 [AsolRGP2] | only at high concentrations; also recorded: small but significant response but no clear dose–response | much lower than that of RGP1 | 
Acanthaster cf. solaris Relaxin-like gonad-stimulating peptide 1 [AsolRGP1] | concentration-dependent cAMP activity; also recorded: dose-dependent increase in CRE reporter gene activation |  | 38.6 ± 6.9 % forskolin response
